In patent publication US20090304746A1 (priority 1993, published 2009):
No end group written: not given here.

How the values were obtained:
[1] = system: PBMC from HCV-infected patients; assay: CTL recall: recognition in vitro by PBMC from HCV-infected patients, 51Cr release; type: cell-based, human
HLA-B*3501 = HLA-B*3501 (Homo sapiens, UniProt P01889, A329T/A93T/A95T/C349S/D201E/D98Y/E176V/E187L/E204Q/E69T/I218V/K202T/L119I/Q94N/R155S/R180L/S121R/S35A/S48A/T118I/V127L/V306I/V36M/Y140S/Y91F); assay: HLA class I binding assay, B*3501
HLA-B*5301 = HLA-B*5301 (Homo sapiens, UniProt P01889, A329T/A93T/A95T/C349S/D201E/D98Y/E176V/E187L/E204Q/E69T/G107R/I218V/K202T/L105A/L119I/N104I/Q94N/R106L/R155S/R180L/S101N/S121R/S35A/S48A/T118I/V127L/V306I/V36M/Y140S/Y91F); assay: HLA class I binding assay, B*5301
DRB1*0301 (DR3) = target: T1, DRB1*0301 (DR3) (Homo sapiens, UniProt P01903+P01911, A100K/A102G/A103R/A169T/F55Y/I96L/K41T/L162R/M171V/P40S/Q125H/Q178H/Q39Y/R42S/S66N/T106N/T262R/W38E/Y61H); assay: HLA class II binding assay, DRB1*0301 (DR3); conditions: DR3 binding affinity, DR3 motif peptides
T1 construct: endogenous in cells; host or cells: MAT

[2] = A3-supertype binders, positive responses over total number examined
[3] = A3-supertype binders, positive responses over total number of contacts examined
[4] = A3-supertype binders, positive responses over total number of patients examined
[5] = A3-supertype binders, sum over all groups, positive over total examined
[6] = sum over the four human data sets

Molecule	Immunogenicity Human, Chisari [1, 2]	Immunogenicity Human, Pape [1, 2]	Immunogenicity Human, Barnaba; contacts [1, 3]	Immunogenicity Human, Barnaba; patients [1, 4]	Immunogenicity Human, overall [1, 5]	Immunogenicity Human, Barnaba; patients ([1]; responders/tested)	Immunogenicity Human, Chisari ([1]; responders/tested)	Immunogenicity Human, Pape ([1]; responders/tested)	Immunogenicity Human, Barnaba; contacts ([1]; responders/tested, contacts)	Immunogenicity Human, overall [1, 6]	IC50 (HLA-B*3501)	IC50 (HLA-B*5301)	IC50 (DRB1*0301 (DR3))
CC(C)C[C@H](NC(=O)[C@H](C)NC(=O)CNC(=O)[C@H](C)NC(=O)[C@@H](NC(=O)CN)C(C)C)C(=O)N[C@H](C(=O)N[C@@H](C)C(=O)N[C@@H](Cc1ccccc1)C(=O)N[C@@H](CCCCN)C(=O)O)C(C)C [Peptide 1073.10]	6/12	2/6	0/4	3/16	11/38	3/16	6/12	2/6	0/4	11/38			
CC[C@H](C)[C@H](NC(=O)[C@H](CCSC)NC(=O)[C@H](CCCNC(=N)N)NC(=O)[C@H](C)NC(=O)[C@H](Cc1c[nH]c2ccccc12)NC(=O)[C@H](CC(C)C)NC(=O)[C@@H](NC(=O)[C@@H]1CCCN1C(=O)[C@H](C)N)[C@@H](C)O)C(=O)N[C@@H](CC(C)C)C(=O)N[C@@H](CCSC)C(=O)O [Peptide 29.0118]											> 30 µM	> 30 µM	
CC(C)C[C@H](NC(=O)[C@H](C)NC(=O)CNC(=O)[C@H](C)NC(=O)[C@@H](N)C(C)C)C(=O)N[C@H](C(=O)N[C@@H](C)C(=O)N[C@@H](Cc1ccccc1)C(=O)N[C@@H](CCCCN)C(=O)O)C(C)C [Peptide 24.0090]	6/12	0/4	1/4	4/16	11/38	4/16	6/12	0/4	1/4	11/38			
CC(C)C[C@H](NC(=O)[C@@H](N)CCCNC(=N)N)C(=O)NCC(=O)N[C@H](C(=O)N[C@@H](CCCNC(=N)N)C(=O)N[C@@H](C)C(=O)N[C@H](C(=O)N[C@@H](CCCNC(=N)N)C(=O)N[C@@H](CCCCN)C(=O)O)[C@@H](C)O)C(C)C [Peptide 1073.11]	7/12	1/6	1/4	4/16	13/38	4/16	7/12	1/6	1/4	13/38			
CC[C@H](C)[C@H](NC(=O)[C@@H](N)CC(C)C)C(=O)N[C@@H](Cc1ccccc1)C(=O)N[C@@H](CS)C(=O)N[C@@H](Cc1c[nH]cn1)C(=O)N[C@@H](CO)C(=O)N[C@@H](CCCCN)C(=O)N[C@@H](CCCCN)C(=O)N[C@@H](CCCCN)C(=O)O [Peptide 1.0123]	4/12	2/6	1/4	6/16	13/38	6/16	4/12	2/6	1/4	13/38			
CSCC[C@H](NC(=O)[C@@H](N)CCCNC(=N)N)C(=O)N[C@@H](Cc1ccc(O)cc1)C(=O)N[C@H](C(=O)NCC(=O)NCC(=O)N[C@H](C(=O)N[C@@H](CCC(=O)O)C(=O)N[C@@H](Cc1c[nH]cn1)C(=O)N[C@@H](CCCNC(=N)N)C(=O)O)C(C)C)C(C)C [Peptide 1073.13]	4/12	1/6	1/4	5/16	11/38	5/16	4/12	1/6	1/4	11/38			
CC(C)C[C@H](NC(=O)[C@@H](N)CCC(N)=O)C(=O)N[C@@H](Cc1ccccc1)C(=O)N[C@H](C(=O)N[C@@H](Cc1ccccc1)C(=O)N[C@@H](CO)C(=O)N1CCC[C@H]1C(=O)N[C@@H](CCCNC(=N)N)C(=O)N[C@@H](CCCNC(=N)N)C(=O)O)[C@@H](C)O [Peptide 1.0955]	6/12	1/6	0/4	1/16	8/38	1/16	6/12	1/6	0/4	8/38			
CC[C@H](C)[C@H](NC(=O)[C@H](CC(C)C)NC(=O)[C@H](CCCNC(=N)N)NC(=O)[C@H](C)NC(=O)[C@@H]1CCCN1C(=O)[C@@H](N)CCCCN)C(=O)N[C@H](C(=O)N[C@@H](Cc1ccccc1)C(=O)O)C(C)C [Peptide 29.0037]											> 30 µM	> 30 µM	
CSCC[C@H](NC(=O)[C@H](CC(C)C)NC(=O)[C@H](C)NC(=O)[C@H](CC(=O)O)NC(=O)[C@@H](NC(=O)[C@H](C)NC(=O)[C@@H](NC(=O)[C@@H](NC(=O)[C@@H](NC(=O)[C@@H](N)C(C)C)C(C)C)C(C)C)C(C)C)[C@@H](C)O)C(=O)N[C@H](C(=O)NCC(=O)N[C@@H](Cc1ccc(O)cc1)C(=O)N[C@H](C(=O)NCC(=O)O)[C@@H](C)O)[C@@H](C)O [CH35.0106]													≤ 1 µM
CSCC[C@H](NC(=O)[C@H](CCCNC(=N)N)NC(=O)[C@H](C)NC(=O)[C@H](Cc1c[nH]c2ccccc12)NC(=O)[C@H](CC(C)C)NC(=O)[C@@H](NC(=O)[C@@H]1CCCN1C(=O)[C@H](C)N)[C@@H](C)O)C(=O)O [Peptide 29.0031]											> 30 µM	> 30 µM	
C[C@@H](O)[C@H](NC(=O)[C@@H](N)CCCCN)C(=O)N[C@@H](CO)C(=O)N[C@@H](CCC(=O)O)C(=O)N[C@@H](CCCNC(=N)N)C(=O)N[C@@H](CO)C(=O)N[C@@H](CCC(N)=O)C(=O)N1CCC[C@H]1C(=O)N[C@@H](CCCNC(=N)N)C(=O)O [Peptide 1.0952]	3/12	0/6	1/4	2/16	6/38	2/16	3/12	0/6	1/4	6/38			
CC[C@H](C)[C@H](NC(=O)[C@H](Cc1ccc(O)cc1)NC(=O)[C@@H]1CCCN1C(=O)[C@@H](N)CC(C)C)C(=O)N[C@@H](CCC(=O)O)C(=O)N[C@@H](CCC(N)=O)C(=O)NCC(=O)N[C@@H](CCSC)C(=O)O [Peptide 29.0042]											> 30 µM	> 30 µM	
CC(C)C[C@H](NC(=O)[C@H](CCCNC(=N)N)NC(=O)[C@@H]1CCCN1C(=O)CNC(=O)[C@H](CCCNC(=N)N)NC(=O)[C@H](CCCNC(=N)N)NC(=O)[C@@H]1CCCN1C(=O)[C@@H](N)CC(C)C)C(=O)O [Peptide 29.0040]											> 30 µM	> 30 µM	
FPGCSFSIF [Peptide 1145.13]												0.0032 µM	
CC[C@H](C)[C@H](N)C(=O)N1CCC[C@H]1C(=O)N[C@@H](Cc1ccccc1)C(=O)N[C@@H](Cc1ccc(O)cc1)C(=O)NCC(=O)N[C@@H](CCCCN)C(=O)N[C@@H](C)C(=O)N[C@H](C(=O)O)[C@@H](C)CC [29.0035/1260.04]											> 30 µM	> 30 µM	
